# Measured values: patent US20050288347A1, “Certain triazole-based compounds, compositions, and uses thereof” (priority 2004, published 2005)
# “Also recorded” adds a separate entry of the source.
# Target: protein kinase
# Experiment: HTS ATP-utilizing enzyme assay, off-chip mobility-shift format (Caliper HTS 250)
# Type: biochemical, human
# Conditions: kinase(s) for which the compound exhibits protein kinase inhibitory activity; test compound 10 μM; active = greater than three-sigma from the mean activity of inactive compounds
# Outline: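 Single-point screen at 10 μM compound in HEPES pH 7.5 buffer with Triton X-100 and BSA, 2.5 h at 20–22 °C. Substrate-to-phosphopeptide ratio measured by off-chip microfluidic mobility shift; EDTA wells as 100% and DMSO wells as 0% control, hits called at three-sigma limits.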
row,Structure (SMILES),Kinase
1,"O=C(CSc1nnc(-c2ccncc2)[nH]1)c1c[nH]c2ccccc12 [1-(1H-indol-3-yl)-2-(5-(pyridin-4-yl)-4H-1,2,4-triazol-3-ylthio)ethanone]",CHEK2 and AURORA-A and PKA
2,"O=C(CSc1nnc(-c2ccco2)[nH]1)c1ccc(O)c(O)c1 [1-(3,4-dihydroxyphenyl)-2-(5-(furan-2-yl)-4H-1,2,4-triazol-3-ylthio)ethanone]",FYN and PDGFRR-α and FLT-3
3,"Nc1nncn1C(=O)Cc1ccc(Cl)cc1 [1-(3-amino-4H-1,2,4-triazol-4-yl)-2-(4-chlorophenyl)ethanone]",GSK-3-α; also recorded: GSK-3-β
4,"COc1ccc(-c2nnc(SCC(C)=O)n2-c2ccccc2)cc1 [1-(5-(4-methoxyphenyl)-4-phenyl-4H-1,2,4-triazol-3-ylthio)propan-2-one]",INSR
5,"O=C(CSc1nnc(-c2cccnc2)[nH]1)c1ccccc1 [1-phenyl-2-(5-(pyridin-3-yl)-4H-1,2,4-triazol-3-ylthio)ethanone]",AURORA-A
6,"Cc1cccc(-c2nnc(SCC(=O)c3ccccc3)[nH]2)c1 [1-phenyl-2-(5-m-tolyl-4H-1,2,4-triazol-3-ylthio)ethanone]",FLT-3; also recorded: AURORA-A
7,"Cc1ccc(-c2nnc(SCC(=O)O)n2-c2ccc(C)cc2)cc1 [2-(4,5-dip-tolyl-4H-1,2,4-triazol-3-ylthio)acetic acid]",DAPK1
8,"Cc1ccc(-c2nnc(SC(C)C(=O)O)n2-c2ccc(C)cc2)cc1 (stereo not shown) [2-(4,5-dip-tolyl-4H-1,2,4-triazol-3-ylthio)propanoic acid]",DAPK1
9,"COc1ccccc1-n1c(SCC(=O)O)nnc1-c1ccccc1C [2-(4-(2-methoxyphenyl)-5-o-tolyl-4H-1,2,4-triazol-3-ylthio)acetic acid]",CHEK2
10,"O=C(O)CSc1nnc(-c2cccnc2)n1-c1ccc(F)cc1 [2-(4-(4-fluorophenyl)-5-(pyridin-3-yl)-4H-1,2,4-triazol-3-ylthio)acetic acid]",AURORA-A
11,"COc1ccc(-n2c(SC(C)C(=O)O)nnc2-c2ccccc2)cc1 (stereo not shown) [2-(4-(4-methoxyphenyl)-5-phenyl-4H-1,2,4-triazol-3-ylthio)propanoic acid]",AURORA-A
12,"O=C(O)CSc1nnc(-c2cccnc2)n1Cc1ccco1 [2-(4-(furan-2-ylmethyl)-5-(pyridin-3-yl)-4H-1,2,4-triazol-3-ylthio)acetic acid]",DAPK1; also recorded: GSK3-β; also recorded: AURORA-A
13,"O=C(CSc1nncn1-c1ccccn1)Nc1nccs1 [2-(4-(pyridin-2-yl)-4H-1,2,4-triazol-3-ylthio)-N-(thiazol-2-yl)acetamide]",GSK3-α
14,"C=CCn1c(SCC(=O)O)nnc1-c1ccc([N+](=O)[O-])cc1 [2-(4-allyl-5-(4-nitrophenyl)-4H-1,2,4-triazol-3-ylthio)acetic acid]",GSK3-β
15,"COc1cc(NC(=O)CSc2nncn2N)cc(OC)c1 [2-(4-amino-4H-1,2,4-triazol-3-ylthio)-N-(3,5-dimethoxyphenyl)acetamide]",DYRK2
16,"N#CCSc1nnc(-c2ccc(O)cc2)n1Cc1ccccc1 [2-(4-benzyl-5-(4-hydroxyphenyl)-4H-1,2,4-triazol-3-ylthio)acetonitrile]",GSK3-β; also recorded: GSK3-α
17,"CCc1ccc(OCc2nnc(SCC(=O)O)n2Cc2ccccc2)cc1 [2-(4-benzyl-5-((4-ethylphenoxy)methyl)-4H-1,2,4-triazol-3-ylthio)acetic acid]",AKT1

row,Structure (SMILES),Kinase
1,"N#CCSc1nnc(-c2cccnc2)n1Cc1ccccc1 [2-(4-benzyl-5-(pyridin-3-yl)-4H-1,2,4-triazol-3-ylthio)acetonitrile]",AURORA-A
2,"Cc1nnc(SC(C)C(=O)Nc2ccccc2)n1Cc1ccccc1 (stereo not shown) [2-(4-benzyl-5-methyl-4H-1,2,4-triazol-3-ylthio)-N-phenylpropanamide]",PKA and DAPK1
3,"CCn1c(SC(C)C(=O)Nc2ccccc2C)nnc1-c1ccc([N+](=O)[O-])cc1 (stereo not shown) [2-(4-ethyl-5-(4-nitrophenyl)-4H-1,2,4-triazol-3-ylthio)-N-o-tolylpropanamide]",DAPK1
4,"CCc1ccc(OCc2nnc(SCC#N)n2CC)cc1 [2-(4-ethyl-5-((4-ethylphenoxy)methyl)-4H-1,2,4-triazol-3-ylthio)acetonitrile]",AURORA-A
5,"CCn1c(SCC(=O)c2ccccc2)nnc1-c1cccnc1 [2-(4-ethyl-5-(pyridin-3-yl)-4H-1,2,4-triazol-3-ylthio)-1-phenylethanone]",SYK
6,"CCn1c(SC(C)C(=O)O)nnc1-c1cccnc1 (stereo not shown) [2-(4-ethyl-5-(pyridin-3-yl)-4H-1,2,4-triazol-3-ylthio)propanoic acid]",LYNA
7,"CCn1c(SCC(=O)Nc2ccccc2C)nnc1C(C)C [2-(4-ethyl-5-isopropyl-4H-1,2,4-triazol-3-ylthio)-N-o-tolylacetamide]",PDGFRR-α
8,"CCn1c(SCC(=O)Nc2nccs2)nnc1-c1ccccc1 [2-(4-ethyl-5-phenyl-4H-1,2,4-triazol-3-ylthio)-N-(thiazol-2-yl)acetamide]",GSK3-β; also recorded: GSK3-α; also recorded: CHEK2
9,"Cn1cnnc1SCC(=O)N1c2ccccc2Sc2ccccc21 [2-(4-methyl-4H-1,2,4-triazol-3-ylthio)-1-(10H-phenothiazin-10-yl)ethanone]",LCK
10,"Cn1c(SCC(N)=O)nnc1-c1ccc([N+](=O)[O-])cc1 [2-(4-methyl-5-(4-nitrophenyl)-4H-1,2,4-triazol-3-ylthio)acetamide]",PDGFRR-α and FYN
11,"Cc1cccc(OCc2nnc(SC(C)C(=O)O)n2C)c1 (stereo not shown) [2-(4-methyl-5-(m-tolyloxymethyl)-4H-1,2,4-triazol-3-ylthio)propanoic acid]",AURORA-A
12,"Cc1ccc(OCc2nnc(SCC#N)n2C)cc1 [2-(4-methyl-5-(p-tolyloxymethyl)-4H-1,2,4-triazol-3-ylthio)acetonitrile]",CSK
13,"CC(Sc1nnc(COc2ccccc2)n1C)C(=O)O (stereo not shown) [2-(4-methyl-5-(phenoxymethyl)-4H-1,2,4-triazol-3-ylthio)propanoic acid]",AURORA-A
14,"Cn1c(SCC(=O)c2ccccc2)nnc1-c1ccncc1 [2-(4-methyl-5-(pyridin-4-yl)-4H-1,2,4-triazol-3-ylthio)-1-phenylethanone]",PKA and MSK1 and AURORA-A
15,"Cn1c(SCC(N)=O)nnc1-c1ccncc1 [2-(4-methyl-5-(pyridin-4-yl)-4H-1,2,4-triazol-3-ylthio)acetamide]",AKT1
16,"Cc1ccc(OCc2nnc(SC(C)C(=O)O)n2-c2ccccc2)cc1 (stereo not shown) [2-(4-phenyl-5-(p-tolyloxymethyl)-4H-1,2,4-triazol-3-ylthio)propanoic acid]",AURORA-A
17,"N#CCSc1nnc(-c2cccnc2)n1-c1ccccc1 [2-(4-phenyl-5-(pyridin-3-yl)-4H-1,2,4-triazol-3-ylthio)acetonitrile]",AURORA-A

# Same assay, conditions: test compound 10 μM; active = activity greater than three-sigma from the mean of the predominately inactive population for that enzyme
row,Structure (SMILES),protein kinase against which the compound exhibits inhibitory activity (Table 3)
1,COc1ccccc1-n1c(SCCN2CCCCC2)nnc1-c1cccnc1,AURORA-A
2,c1cncc(-c2nnc(SCCN3CCCCC3)[nH]2)c1,GSK3-α
3,FC(F)(F)c1cccc(-c2nnc(SCC3CCCO3)[nH]2)c1 (stereo not shown),AURORA-A
4,Oc1ccc(-c2nnc(SCCN3CCCCC3)n2Cc2ccco2)cc1,GSK3-α
5,COc1ccccc1-n1c(SC(C)C(=O)Nc2cccc(NC(=O)c3ccco3)c2)nnc1-c1cccc(Cl)c1 (stereo not shown),ROCK2
6,"OC(CSc1nnc(-c2cccnc2)[nH]1)C(F)(F)F (stereo not shown) [1,1,1-trifluoro-3-(5-(pyridin-3-yl)-4H-1,2,4-triazol-3-ylthio)propan-2-ol]",AURORA-A
7,"OC(CSc1nnc(-c2cccs2)[nH]1)C(F)(F)F (stereo not shown) [1,1,1-trifluoro-3-(5-(thiophen-2-yl)-4H-1,2,4-triazol-3-ylthio)propan-2-ol]",AURORA-A; also recorded: DYRK2
8,"COc1ccccc1-c1nnc(SCCSc2nnc(-c3ccccc3OC)n2-c2ccc(C)cc2)n1-c1ccc(C)cc1 [1,2-bis(5-(2-methoxyphenyl)-4-p-tolyl-4H-1,2,4-triazol-3-ylthio)ethane]",CDK1
9,"CCn1c(SCCSc2nnc(C3CCCCC3)n2CC)nnc1C1CCCCC1 [1,2-bis(5-cyclohexyl-4-ethyl-4H-1,2,4-triazol-3-ylthio)ethane]",CHEK2
10,"CCn1c(SCCN2CCCCC2)nnc1-c1ccc([N+](=O)[O-])cc1 [1-(2-(4-ethyl-5-(4-nitrophenyl)-4H-1,2,4-triazol-3-ylthio)ethyl)piperidine]",PDGFRR-α
11,"COc1ccc(-c2nnc(SCCN3CCCCC3)[nH]2)cc1 [1-(2-(5-(4-methoxyphenyl)-4H-1,2,4-triazol-3-ylthio)ethyl)piperidine]",GSK3-α; also recorded: DYRK2; also recorded: GSK3-β
12,"O=C1c2ccccc2C(=O)N1CCSc1nnc(-c2ccc([N+](=O)[O-])cc2)[nH]1 [2-(2-(5-(4-nitrophenyl)-4H-1,2,4-triazol-3-ylthio)ethyl)isoindoline-1,3-dione]",GSK3-α
13,"O=C1c2ccccc2C(=O)N1CCSc1nnc(-c2cccs2)[nH]1 [2-(2-(5-(thiophen-2-yl)-4H-1,2,4-triazol-3-ylthio)ethyl)isoindoline-1,3-dione]",AURORA-A; also recorded: GSK3-α; also recorded: DYRK2
14,"O=C1c2ccccc2C(=O)N1CCSc1nnc(-c2ccccc2)[nH]1 [2-(2-(5-phenyl-4H-1,2,4-triazol-3-ylthio)ethyl)isoindoline-1,3-dione]",AURORA-A; also recorded: GSK3-β; also recorded: GSK3-α
15,"Oc1ccccc1-c1nnc(SCc2ccc(F)cc2)n1Cc1ccccc1 [2-(4-benzyl-5-(4-fluorobenzylthio)-4H-1,2,4-triazol-3-yl)phenol]",AURORA-A
